Experimental data reported in publication PMC8950868, “Identifying Human PTP1B Enzyme Inhibitors from Marine Natural Products: Perspectives for Developing of Novel Insulin-Mimetic Drugs” (Pharmaceuticals, 2022).
Values belong to the compound of their own block, whether it stands above or below them.

Columns and labels:
[1] = molecular target: T1, human recombinant PTP1B (1–302) (Homo sapiens, UniProt P18031); test: PTP1B enzymatic assay (p-NPP hydrolysis; preliminary screening and IC50); assay type: biochemical; conditions: for Effect on PTP1B activity in preliminary screening: 20 µM of each compound, 30 min; for IC50: 2.5 mM p-NPP, pH 7.0, 37 °C, mean ± SD (n = 3), read-out: IC50 values determined on PTP1B
T1 construct: human recombinant PTP1B (1–302)
T1 sequence (P18031 1-302): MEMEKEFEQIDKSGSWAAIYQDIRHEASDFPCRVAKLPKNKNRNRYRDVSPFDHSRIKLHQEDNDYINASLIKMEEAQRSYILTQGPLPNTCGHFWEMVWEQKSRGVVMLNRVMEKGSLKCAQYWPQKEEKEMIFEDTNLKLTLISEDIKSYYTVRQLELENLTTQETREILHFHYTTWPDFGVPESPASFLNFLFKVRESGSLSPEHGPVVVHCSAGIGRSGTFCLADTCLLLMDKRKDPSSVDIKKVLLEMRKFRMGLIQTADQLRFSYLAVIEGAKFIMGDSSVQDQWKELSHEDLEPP
Protocol: We performed enzymatic assays as previously described. For each assay, an aliquot of human recombinant PTP1B (1–302) was added in the assay buffer (0.075 M β,β-dimethylglutarate pH 7.0 containing 1 mM EDTA, 0.1 mM DTT and a p-nitrophenylphosphate (p-NPP) (Chemcruz, Santa Cruz Biotechnology (Santa Cruz, CA, USA)). The reactions were performed at 37 °C in a final volume of 1 mL. After adequate time (30 min) of incubation, the reactions were stopped adding 2 mL of 0.1 M KOH in each sample. The released amount of p-nitrophenol, product of the reaction, was determined by measuring the absorbance at 400 nm in a 1 cm pathlength cuvette.
The IC50 value of compounds against PTP1B was determined by measuring the hydrolysis rate of the enzyme in the presence of a fixed substrate concentration (2.5 mM p-NPP) and increasing inhibitor concentrations (generally 14–16 different concentrations). Each test was carried out in triplicate. Experimental data were normalized respect to control samples and then fitted using a non-linear fitting software, using the following equation: Vi/V0=Max−Min/1+x/IC50^slope+Min where the Vi/V0 value represents the relative activity calculated in presence of each inhibitor concentration; the maximum and minimum value of the activity are represented by “Max” and “Min”, respectively; “x” is the concentration of the inhibitor; IC50 is the inhibitor concentration able to decrease the enzymatic activity up to 50%; “slope” represents the slope of the curve in the transition zone.
Figure 2 Preliminary screening assay on PTP1B. All assays were started by diluting an aliquot of PTP1B in the assay solution containing substrate alone (control test) or substrate and an aliquot of each compound (20 µM, final concentration). After 30 min, the reactions were stopped by adding a concentrated KOH solution. The enzyme activity was determined by measuring the amount of p-nitrophenol that was released in each sample using a spectrophotometer. Data obtained were normalized respect to control sample. […] Statistical analysis was carried out using one way ANOVA followed by Tukey’s HSD test for pairwise comparisons. Statistics have been drawn on raw data and compare samples to control (Ctr). * p < 0.05; ** p < 0.01.
Figure 3 Determination of the IC50 values with compounds 3, 8a, 8b, 9a and 9b. An aliquot of PTP1B enzyme was diluted in the presence of increasing concentration of the compounds. The activity of PTP1B was determined by measuring the absorbance of the sample at 400 nm, using a spectrophotometer. Data obtained were normalized respect to the control sample and analysed using a non-linear fitting software.

[2] = molecular target: T2, human recombinant AR (Homo sapiens, UniProt P15121); test: AR enzymatic assay (NADPH oxidation, L-idose substrate); assay type: biochemical; conditions: for % residual activity of human AR / remaining activity at 210 µM: 210 µM (maximal concentration used); for % residual activity of human AR: 210 µM; for remaining activity at 43 µM: 43 µM (maximal concentration used)
T2 construct: made in house
Protocol: The human recombinant AR, purified to electrophoretic homogeneity as described, was used as target enzyme. AR activity was determined at 37 °C as previously described by evaluating the decrease in absorbance at 340 nm linked to NADPH oxidation using a Biochrom Libra S60 spectrophotometer. The standard assay mixture contained 0.25 M sodium phosphate buffer pH 6.8, 0.18 mM NADPH, 0.42 M ammonium sulfate, 0.5 mM EDTA and 4.7 mM D,L-glyceraldehyde. One unit of enzyme activity is the amount that catalyses the conversion of 1 µmol of substrate/min in the above assay conditions. For AR inhibition studies, 0.8 mM L-idose was used as substrate in the conditions described above, in the presence of 10 mU of enzyme and of a final concentration of DMSO of 0.7% (v/v).

[3] = test system: HepG2 cells; design: method as in PMID 34677434; conditions: cited from earlier work
[4] = test system: GST–PTP1B fusion protein; design: method as in PMID 27064611; conditions: different pH value, read-out: IC50 on PTP1B previously determined; cited from earlier work
[5] = test system: PTP1B; design: method as in PMID 34677434; conditions: cited from earlier work
[6] = test system: AR; design: method as in PMID 34677434; conditions: cited from earlier work
[7] = read-out: % residual activity of human AR

SMILES: CCCCC[C@H](O)[C@@H](CC[C@H](CCCC)OC(C)=O)OP(=O)(O)O (relative stereo) [Compound 9b]
- Effect on PTP1B activity in preliminary screening [1]: reducing PTP1B activity
- IC50 [1]: 63 ± 14 µM
- % residual activity of human AR [2]: 74 ± 6%
- remaining activity at 210 µM [2, 7]: 77%

SMILES: CCCCC[C@H](O)[C@H](O)CC[C@@H](O)CCCC [Compound 4b, (5S,8R,9S)-tetradecane-5,8,9-triol]
- Effect on PTP1B activity in preliminary screening [1]: loss of activity
- remaining activity at 43 µM [2, 7]: 98 ± 3%

SMILES: O=C(O)CNC(=O)CCCCCC[C@H](O)CCCO [Compound 2]
- Effect on PTP1B activity in preliminary screening [1]: loss of activity
- AR inhibition (in words) [2]: ineffective
- remaining activity at 71 µM ([2]; 71 µM (maximal concentration used), read-out: % residual activity of human AR): 103 ± 4%

SMILES: CCCCC[C@H](OP(=O)(O)O)[C@H](O)CC[C@H](CCCC)OC(C)=O (relative stereo) [Compound 8b]
- Effect on PTP1B activity in preliminary screening [1]: reducing PTP1B activity
- IC50 [1]: 37.1 ± 6.5 µM
- % residual activity of human AR [2]: 74 ± 8%
- remaining activity at 210 µM [2, 7]: 76%

SMILES: CCCCCCCCCCCCCCC(OP(=O)(O)O)C(O)CCC(O)C(O)CCC(O)CCCCCCC(=O)NCC(=O)O (stereo not shown) [Phosphoeleganin, phosphoeleganin]
- Activity in HepG2 cells [3]: insulin-sensitizing activity
- IC50 [4]: 11 ± 2 µM
- Type of PTP1B inhibition [5]: pure non-competitive inhibitor
- Type of AR inhibition [6]: mixed-type inhibitor
- IC50 [1]: 0.7 ± 0.1 µM

SMILES: CCCCC[C@@H](O)[C@@H](O)CC[C@@H](O)CCCC [Compound 4a, (5S,8S,9R)-tetradecane-5,8,9-triol]
- Effect on PTP1B activity in preliminary screening [1]: loss of activity
- remaining activity at 43 µM [2, 7]: 97 ± 4%

The next lines start with the values.

- Effect on PTP1B activity in preliminary screening [1]: loss of activity
SMILES: CCCCC[C@@H](O)[C@@H](O)CC[C@H](CCCC)OC(C)=O (relative stereo) [Compound 7a]

- Effect on PTP1B activity in preliminary screening [1]: loss of activity
SMILES: CCCCC[C@H](O)[C@H](O)CC[C@H](CCCC)OC(C)=O (relative stereo) [Compound 7b]

- Effect on PTP1B activity in preliminary screening [1]: reducing PTP1B activity
- IC50 [1]: 83 ± 15 µM
- remaining activity at 107 µM ([2]; 107 µM (maximal concentration used), read-out: % residual activity of human AR): 86 ± 2%
SMILES: CCCCC[C@@H](O)[C@H](CC[C@H](CCCC)OC(C)=O)OP(=O)(O)O (relative stereo) [Compound 9a]
